This note sets out measurements from patent publication US9650427B2, “Modulators of antiviral signaling pathways and therapeutic uses thereof” (priority 2011, dated 2017).

In one assay the test system is RLR/MAVS pathway. Nature of the assay: PolyIC-induced IFN expression in polarized T84 cells, quantitative RT-PCR. Type of assay: cell-based, human. The following applies: T84 cells pretreated 1 hour with peptide/inhibitor, then PolyIC for 5 hours; FIG. 2. On the procedure:
FIG. 2 includes graphs showing the inhibitory effects of the novel RLR/MAVS signaling inhibitor. The results are from T84 cells that were treated for 1 hr with the inhibitors shown and then treated with PolyIC (PIC) for 5 hours. Cytokine expression was then assessed by qPCR. The y-axis indicates fold induction over untreated cells (UI).
To determine if the MAVS peptide can block RLR signaling in human cells, experiments were performed in the human intestinal epithelial cell (IEC) line T84 comparing the peptide to a previously characterized antennapedia-peptide that targets the TLR adaptor MyD88. These cells were chosen because it is well-known that many viruses penetrate the intestinal epithelium and it has been shown that they respond naturally to both TLR and RLR ligands (FIG. 2 and data not shown). Polarized T84 cells were pretreated for 1 hour with each peptide and then treated for 5 hours with synthetic viral RNA PolyIC, which activates signaling by […]. […] This inhibitory affect was specific, as the IFN expression was unaffected in cells treated with control peptides.

In assay [1] the test system is antiviral responses in human cells. Nature of the assay: Blocking of antiviral responses in human cells. Format: cell-based. The following applies: at micromolar concentrations. From the text:
Accordingly, described herein is a cell-permeable peptide inhibitor of antiviral pathways that operates in every human cell. It consists of the cell penetrating domain of the Drosophila antennapedia protein and amino acids 50-73 of the human MAVS protein. […]. This peptide represents the first described means of blocking antiviral responses in human cells before or at any time after infection by a virus. Moreover, this molecule can serve as a therapeutic to treat inflammatory autoimmune diseases (e.g., those that are caused by inappropriate activation of antiviral responses). No other method currently exists to accomplish these goals.

For `CCN(CC)CCCC(C)Nc1ccnc2cc(Cl)ccc12` (stereo not drawn) [chloroquine, reference compound], in the assay on RLR/MAVS pathway, the “expression of Type I IFN (IFNβ) and Type III IFN IL-29 in response to PolyIC” value was “neither chloroquine (which blocks TLRs that detect viral RNA) nor inhibitors of the dsRNA dependent kinase PKR, affected”. As to “GNRDTLWHLFNTLQRRPGWVEYFI-RQIKIWFQNRRMKWKK (GNRDTLWHLFNTLQRRPGWVEYFIRQIKIWFQNRRMKWKK) [MAVS peptide, fusion peptide of amino acids 50-73 of MAVS and the cell penetrating domain of the antennapedia protein]”, the “expression of Type I IFN (IFNβ) and Type III IFN IL-29 in response to PolyIC” value with RLR/MAVS pathway was “completely abolished”. Besides, in assay [1], the “antiviral responses (expression of Type I and III interferons and interferon stimulated genes, including viperin)” value is “blocks antiviral responses in human cells at micromolar concentrations”.
